Assay results: patent US6780996B2, “Process for the preparation of 7-substituted-3 quinolinecarbonitriles” (Wyeth Holdings Corporation, priority 2002, dated 2004)

melting point [°C] | SMILES
143 to 145 | COCCOc1cc2ncc(C#N)c(Nc3cc(OC)c(C)cc3C)c2cc1OC [Example 37, 4-[(2,4-Dimethyl-5-methoxyphenyl)amino]-6-methoxy-7-(2-methoxyethoxy)quinoline-3-carbonitrile]
179 to 181 | COCCOc1cc2ncc(C#N)c(Nc3cc(OC)ccc3Cl)c2cc1OC [Example 38, 4-[(2-Chloro-5-methoxyphenyl)amino]-6-methoxy-7-(2-methoxyethoxy)quinoline-3-carbonitrile]
107 to 109 | COCCOc1cc2ncc(C#N)c(Nc3ccc(C)cc3C)c2cc1OC [Example 40, 4-[(2,4-Dimethylphenyl)amino]-6-methoxy-7-(2-methoxyethoxy)quinoline-3-carbonitrile]
163 to 166 | COc1ccc(C)c(Nc2c(C#N)cnc3cc(OCCCC4CCN(C)CC4)c(OC)cc23)c1 [Example 48, 6-Methoxy-4-[(5-methoxy-2-methylphenyl)amino]-7-[3-(1-methylpiperidine-4-yl)propoxy]quinoline-3-carbonitrile]
159 to 162 | COc1cc2c(Nc3ccc(C)cc3C)c(C#N)cnc2cc1OCCCC1CCN(C)CC1 [Example 49, 4-[(2,4-Dimethylphenyl)amino]-6-methoxy-7-[3(1-methylpiperidine-4-yl)propoxy]quinoline-3-carbonitrile]
192 to 195 | CCN1CCC(COc2cc3ncc(C#N)c(Nc4cc(OC)c(Cl)cc4Cl)c3cc2OC)CC1 [Example 51, 4-[(2,4-Dichloro-5-methoxyphenyl)amino]-7-[(1-ethylpiperidine-4-yl)methoxy]-6-methoxyquinoline-3-carbonitrile]
134 to 138 | COc1cc(Nc2c(C#N)cnc3cc(OCC4CCNCC4)c(OC)cc23)c(Cl)cc1Cl [Example 53, 4-[(2,4-Dichloro-5-methoxyphenyl)amino]-6-methoxy-7-(piperidin-4-ylmethoxy)quinoline-3-carbonitrile]
165 to 167 | COc1cc(Nc2c(C#N)cnc3cc(NCCCN(C)C)c(OC)cc23)c(Cl)cc1Cl [Example 54, 4-[(2,4-Dichloro-5-methoxyphenyl)amino]-7-{[3-(dimethylamino)propyl]amino}-6-methoxyquinoline-3-carbonitrile]
116 to 117 | COc1cc(Nc2c(C#N)cnc3cc(N(C)CCCN(C)C)c(OC)cc23)c(Cl)cc1Cl [Example 55, 4-[(2,4-Dichloro-5-methoxyphenyl)amino]-7-{[3-(dimethylamino)propyl](methyl)amino]-6-methoxyquinoline-3-carbonitrile]
165 to 166 | COCCNc1cc2ncc(C#N)c(Nc3cc(OC)c(Cl)cc3Cl)c2cc1OC [Example 56, 4-[(2,4-Dichloro-5-methoxyphenyl)amino]-6-methoxy-7-[(2-methoxyethyl)amino]quinoline-3-carbonitrile]
182 to 184 | COc1cc2c(Nc3ccc(Oc4cccnc4)cc3)c(C#N)cnc2cc1OCC1CCN(C)CC1 [Example 57, 6-Methoxy-7-(1-methyl-piperidin-4-ylmethoxy)-4-{[4-(pyridin-3-yloxy)-phenyl]amino}quinoline-3-carbonitrile]
